Converted amounts (≈) assume the structure as drawn. Where two headings read alike, the source gives them in different places. Ends that are not written are not given here.
Experiments:
MRSA T144 = assay: MIC/MBC, broth micro-dilution; assay type: cell-based, Staphylococcus aureus
Experimental: (§1) Experiments were performed with two biological replicates.

E. faecalis A4 (VRE) = assay: MIC/MBC, broth micro-dilution; assay type: cell-based
Experimental: as §1

E. coli 1F28 (tet(X4)) = assay: MIC/MBC, broth micro-dilution; assay type: cell-based
Experimental: as §1

E. coli B3-1 (tet(X4)) = assay: MIC/MBC, broth micro-dilution; assay type: cell-based
Experimental: as §1

[1] = tested on: S. enteritidis ATCC 13076; assay: microbe, parasite or virus in culture; assay type: cell-based
Experimental: as §1

[2] = tested on: S. aureus 215 (cfr + LZD^R); assay: microbe, parasite or virus in culture; assay type: cell-based; conditions: 18 h
Experimental: as §1

E. coli ATCC 25922 = assay: microbe, parasite or virus in culture; assay type: cell-based
Experimental: as §1

[3] = tested on: MDR E. coli B2 (mcr-1 + blaNDM-5); assay: microbe, parasite or virus in culture; assay type: cell-based
Experimental: as §1

S. aureus ATCC 29213 = assay: microbe, parasite or virus in culture; assay type: cell-based
Experimental: as §1

E. coli 2W25 = assay: MIC, tigecycline-resistant clinical isolate; assay type: cell-based
Experimental: as §1

E. coli 1C1 = assay: MIC, tigecycline-resistant clinical isolate; assay type: cell-based
Experimental: as §1

Shigella 1F25 = assay: MIC, tigecycline-resistant clinical isolate; assay type: cell-based; conditions: Shigella 1F25, feces, broth micro-dilution
Experimental: as §1

E. coli 1A34 = assay: MIC, tigecycline-resistant clinical isolate; assay type: cell-based
Experimental: as §1

E. coli 2A19 = assay: MIC, tigecycline-resistant clinical isolate; assay type: cell-based
Experimental: as §1

E. coli 1N31 = assay: MIC, tigecycline-resistant clinical isolate; assay type: cell-based
Experimental: as §1

E. coli 1F16 = assay: MIC, tigecycline-resistant clinical isolate; assay type: cell-based
Experimental: as §1

E. coli 1F31 = assay: MIC, tigecycline-resistant clinical isolate; assay type: cell-based
Experimental: as §1

E. coli 1N28 = assay: MIC, tigecycline-resistant clinical isolate; assay type: cell-based
Experimental: as §1

[4] = Hydrophobicity by RP-HPLC (percent acetonitrile at elution); assay type: physicochemical; conditions: acetonitrile in water, 0.1% (v/v) TFA, higher percent = higher hydrophobicity
Experimental: All peptides used in this study were synthesized by GL Biochem (Shanghai, China) using a solid phase peptide synthesis (SPPS) method, and their accurate molecular weights were determined by matrix-assisted laser desorption/ionization time-of-flight mass spectrometry (MALDI-TOF MS). The peptide purity (>95%) and retention time were determined by reversed-phase high-performance liquid chromatography (HPLC).
A collection of tryptophan-rich linear peptides on the basis of MP196 (RWRWRW-NH2) was designed by increasing peptide length or positive charge or hydrophobicity, replacing amino acids and/or N-terminal acetylation (Table 1). These peptides were synthesized via solid-phase peptide synthesis (SPPS), purified by reverse-phase high-performance liquid chromatography (RP-HPLC) (Figure S1) and validated by matrix-assisted laser desorption/ionization time-of-flight mass spectrometry (MALDI-TOF MS) (Figure S2). […] All engineered peptides belong to cationic AMPs, with 3 or 6 net charges. The percentage of acetonitrile at RP-HPLC elution was regarded as a relative measure of peptides’ hydrophobicity. […] The hydrophobicity order was listed as follows: WRK-12 > WL-9 > WR-6 > WV-9 > KW-6 > WKK-12 > WR-12 > MP196 > WK-6.

RBCs = conditions: cited from earlier work
[5] = ref [19]; cited from earlier work
From the text: Antimicrobial peptides (AMPs), also named host defense peptides, are originated from various organisms and are important immune modulation molecules that protect the host from the invading pathogens. […] However, the high cost of peptides, the lability to proteases, less bioavailable and nonspecific toxicity still hinder these AMPs in clinical practice. A more rational design of AMPs contributes to improving their stability and antibacterial activity. ...

[6] = Staphylococcus aureus, MRSA T144, broth micro-dilution CLSI 2018, MHB, 18 h, 37 °C, read-out: MIC
[7] = Escherichia coli, E. coli 1F28 (tet(X4)), broth micro-dilution CLSI 2018, MHB, 18 h, 37 °C, read-out: MIC
[8] = Escherichia coli, E. coli B3-1 (tet(X4)), broth micro-dilution CLSI 2018, MHB, 18 h, 37 °C, read-out: MIC
[9] = Escherichia coli, Table 2, E. coli B2 (mcr-1 + blaNDM-5), broth micro-dilution CLSI 2018, MHB, 18 h, 37 °C, read-out: MIC
[10] = Enterococcus faecalis, VRE, 18 h
[11] = Escherichia coli, ATCC25922, 18 h
[12] = Staphylococcus aureus, ATCC29213, 18 h
[13] = S. aureus 215 (cfr + LZD^R), broth micro-dilution CLSI 2018, MHB, 37 °C
[14] = MDR B2 (mcr-1 + blaNDM-5, 18 h)

With CC1(C)S[C@@H]2[C@H](NC(=O)[C@H](N)c3ccccc3)C(=O)N2[C@H]1C(=O)O [AMP, ampicillin] the MIC (MRSA T144; [6]) was 32 µg/mL (≈ 91.6 µM), the MIC (E. faecalis A4 (VRE); Enterococcus faecalis, E. faecalis A4 (VRE), broth micro-dilution CLSI 2018, MHB, 18 h, 37 °C, read-out: MIC) was 32 µg/mL (≈ 91.6 µM) and the MIC (E. coli 1F28 (tet(X4)); [7]) was over 128 µg/mL. It also gave an MIC (E. coli B3-1 (tet(X4)); [8]) of over 128 µg/mL, an MIC ([1]; Salmonella enterica, S. enteritidis ATCC 13076, broth micro-dilution CLSI 2018, MHB, 18 h, 37 °C, read-out: MIC) of 8 µg/mL (≈ 22.9 µM) and an MIC ([2]; Staphylococcus aureus) of 64 µg/mL (≈ 183 µM). For the same compound, the MIC (E. coli ATCC 25922; Escherichia coli, ATCC25922, E. coli ATCC 25922, broth micro-dilution CLSI 2018, MHB, 18 h, 37 °C, read-out: MIC) was 8 µg/mL (≈ 22.9 µM), the MIC [3, 9] was over 128 µg/mL and the MIC (S. aureus ATCC 29213; Staphylococcus aureus, ATCC29213, S. aureus ATCC 29213, broth micro-dilution CLSI 2018, MHB, 18 h, 37 °C, read-out: MIC) was 0.25 µg/mL (≈ 0.715 µM).
Work on CN(C)c1cc(NC(=O)CNC(C)(C)C)c(O)c2c1C[C@H]1C[C@H]3[C@H](N(C)C)C(O)=C(C(N)=O)C(=O)[C@@]3(O)C(O)=C1C2=O [TIG, tigecycline, reference compound] yielded an MIC (E. coli 2W25; Escherichia coli, E. coli 2W25, water, tigecycline-resistant clinical isolate, broth micro-dilution, read-out: MIC) of 64 µg/mL (≈ 109 µM), an MIC (E. coli 1C1; Escherichia coli, E. coli 1C1, dust, tigecycline-resistant clinical isolate, broth micro-dilution, read-out: MIC) of 32 µg/mL (≈ 54.6 µM) and an MIC (Shigella 1F25; read-out: MIC) of 8 µg/mL (≈ 13.7 µM). For the same compound, the MIC (E. coli 1A34; Escherichia coli, E. coli 1A34, anal swab, tigecycline-resistant clinical isolate, broth micro-dilution, read-out: MIC) was 16 µg/mL (≈ 27.3 µM), the MIC (E. coli 2A19; Escherichia coli, E. coli 2A19, tigecycline-resistant clinical isolate, broth micro-dilution, read-out: MIC) was 8 µg/mL (≈ 13.7 µM) and the MIC (E. coli 1N31; Escherichia coli, E. coli 1N31, tigecycline-resistant clinical isolate, broth micro-dilution, read-out: MIC) was 128 µg/mL (≈ 219 µM). It also gave an MIC (E. coli 1F16; Escherichia coli, E. coli 1F16, feces, tigecycline-resistant clinical isolate, broth micro-dilution, read-out: MIC) of over 64 µg/mL, an MIC (E. coli 1F31; Escherichia coli, E. coli 1F31, tigecycline-resistant clinical isolate, broth micro-dilution, read-out: MIC) of 32 µg/mL (≈ 54.6 µM) and an MIC (E. coli 1N28; Escherichia coli, E. coli 1N28, nasal swab, tigecycline-resistant clinical isolate, broth micro-dilution, read-out: MIC) of 32 µg/mL (≈ 54.6 µM). The MIC (MRSA T144; [6]) was 2 µg/mL (≈ 3.41 µM), the MIC (E. faecalis A4 (VRE); [10]) was 0.125 µg/mL (≈ 0.213 µM) and the MIC (E. coli 1F28 (tet(X4)); [7]) was 32 µg/mL (≈ 54.6 µM). For the same compound, the MIC (E. coli B3-1 (tet(X4)); [8]) was 32 µg/mL (≈ 54.6 µM), the MIC ([1]; Salmonella enterica, 18 h) was 0.125 µg/mL (≈ 0.213 µM) and the MIC ([2]; Staphylococcus aureus) was 1 µg/mL (≈ 1.71 µM). The MIC (E. coli ATCC 25922; [11]) was 0.125 µg/mL (≈ 0.213 µM), the MIC [3, 9] was 2 µg/mL and the MIC (S. aureus ATCC 29213; [12]) was 0.125 µg/mL (≈ 0.213 µM).
CN[C@H](CC(C)C)C(=O)N[C@H]1C(=O)N[C@@H](CC(N)=O)C(=O)N[C@H]2C(=O)N[C@H]3C(=O)N[C@H](C(=O)N[C@H](C(=O)O)c4cc(O)cc(O)c4-c4cc3ccc4O)[C@H](O)c3ccc(c(Cl)c3)Oc3cc2cc(c3O[C@@H]2O[C@H](CO)[C@@H](O)[C@H](O)[C@H]2O[C@H]2C[C@](C)(N)[C@H](O)[C@H](C)O2)Oc2ccc(cc2Cl)[C@H]1O [VAN, vancomycin] gave an MIC (MRSA T144; Staphylococcus aureus, MRSA, 18 h) of 1 µg/mL (≈ 0.69 µM), an MIC (E. faecalis A4 (VRE); [10]) of over 128 µg/mL and an MIC (E. coli 1F28 (tet(X4)); Escherichia coli, 18 h) of 128 µg/mL (≈ 88.3 µM). For the same compound, the MIC (E. coli B3-1 (tet(X4)); Escherichia coli, 18 h) was 64 µg/mL (≈ 44.2 µM), the MIC ([1]; Salmonella enterica, 18 h) was 128 µg/mL (≈ 88.3 µM) and the MIC ([2]; Staphylococcus aureus) was 1 µg/mL (≈ 0.69 µM). The MIC (E. coli ATCC 25922; [11]) was 128 µg/mL (≈ 88.3 µM), the MIC ([3]; Escherichia coli, 18 h) was 128 µg/mL (≈ 88.3 µM) and the MIC (S. aureus ATCC 29213; [12]) was 0.5 µg/mL (≈ 0.345 µM).
For Ac-WKVKWKVKWKVK-NH2 [WKK-12], the “H (hydrophobicity, percent of acetonitrile at HPLC elution)” value [4] was 31.424 percent acetonitrile, the MIC (E. coli 2W25; 2W25, 4 h) was 64 µg/mL and the MIC (E. coli 1C1; 1C1, 4 h) was 64 µg/mL. It also gave an MIC (Shigella 1F25) of 64 µg/mL, an MIC (E. coli 1A34; 1A34, 4 h) of 64 µg/mL and an MIC (E. coli 2A19; 2A19, 4 h) of 128 µg/mL. For the same compound, the MIC (E. coli 1N31; 1N31, 4 h) was 64 µg/mL, the MIC (E. coli 1F16; 1F16, 4 h) was 64 µg/mL and the MIC (E. coli 1F31; 1F31, 4 h) was 64 µg/mL. The MIC (E. coli 1N28; 1N28, 4 h) was 64 µg/mL, the MIC (MRSA T144; T144, 18 h) was 64 µg/mL and the MIC (E. faecalis A4 (VRE); A4 (VRE, 18 h)) was 64 µg/mL. The MIC (E. coli 1F28 (tet(X4)); 1F28 (tet(X4, 18 h))) was 64 µg/mL, the MIC (E. coli B3-1 (tet(X4)); B3-1 (tet(X4, 18 h))) was 64 µg/mL and the MIC ([1]; ATCC 13076, 18 h) was 64 µg/mL. The MIC [2, 13] was 64 µg/mL, the MIC (E. coli ATCC 25922; ATCC 25922, 18 h) was 128 µg/mL and the MIC [3, 14] was 64 µg/mL. The MIC (S. aureus ATCC 29213; ATCC 29213, 18 h) was 128 µg/mL.
Work on KWKWKW-NH2 [KW-6] yielded an MIC [3, 14] of over 64 µg/mL.
For RWRWRW-NH2 [MP196], the “hemolysis to RBCs” value (RBCs) is listed as “high hemolysis”, the in vivo stability [5] is listed as “low in vivo stability” and the MIC [3, 14] is listed as over 64 µg/mL.
Compound WKVWKVWKV-NH2 [WV-9] has an MIC [3, 14] of over 64 µg/mL.
Compound WKWKWK-NH2 [WK-6] has an MIC [3, 14] of over 64 µg/mL.
WRLRWRLRWRLR-NH2 [WR-12] showed an MIC [3, 14] of 2 µg/mL.
In the case of WRLWRLWRL-NH2 [WL-9], the MIC [3, 14] is reported as 8 µg/mL.
Work on WRWRWR-NH2 [WR-6] yielded an MIC [3, 14] of over 64 µg/mL.
For colistin, the MIC (MRSA T144; MRSA T144, broth micro-dilution CLSI 2018, MHB, 18 h, 37 °C) was 128 µg/mL, the MIC (E. faecalis A4 (VRE); E. faecalis A4 (VRE), broth micro-dilution CLSI 2018, MHB, 18 h, 37 °C) was 128 µg/mL and the MIC (E. coli 1F28 (tet(X4)); E. coli 1F28 (tet(X4)), broth micro-dilution CLSI 2018, MHB, 18 h, 37 °C) was 0.25 µg/mL. It also gave an MIC (E. coli B3-1 (tet(X4)); E. coli B3-1 (tet(X4)), broth micro-dilution CLSI 2018, MHB, 18 h, 37 °C) of 0.25 µg/mL, an MIC ([1]; S. enteritidis ATCC 13076, broth micro-dilution CLSI 2018, MHB, 18 h, 37 °C) of 0.25 µg/mL and an MIC [2, 13] of 64 µg/mL. For the same compound, the MIC (E. coli ATCC 25922; E. coli ATCC 25922, broth micro-dilution CLSI 2018, MHB, 18 h, 37 °C) was 0.5 µg/mL, the MIC ([3]; Table 2, E. coli B2 (mcr-1 + blaNDM-5), broth micro-dilution CLSI 2018, MHB, 18 h, 37 °C) was 8 µg/mL and the MIC (S. aureus ATCC 29213; S. aureus ATCC 29213, broth micro-dilution CLSI 2018, MHB, 18 h, 37 °C) was 16 µg/mL.
